Patent US20120244074A1, “LABELLED INTEGRIN BINDERS” (priority 2009, published 2012)

Experiments:
[1] = tested on: lung adenocarcinoma cell line H2009; experiment: Flow cytometry evaluation of binding on H2009 cells; assay type: cell-based; details: 100 nM, incubation time 1 h at 37° C.
Excerpt: Binding of imaging agent 7 (prepared as described in Example 9) was studied using flow cytometric analysis (Beckman Coulter FC500 MPL) on lung adenocarcinoma cell line H2009 (Cancer Res; 67: 5889-5895).

integrin receptors αvβ3 = target: T1, integrin receptors αvβ3 (Homo sapiens, UniProt P05106+P06756); experiment: In vitro affinity assessment αvβ3: competition with radiolabelled Echistatin on membrane fractions of EA-Hy 926; assay type: binding; details: for competing out binding of the radiolabelled Echistatin: highest concentration tested 144 μM, FIG. 1
T1 construct: membrane fractions prepared from human endothelial adenocarcinoma cell line EA-Hy 926; endogenous in cells; host or cells: EA-Hy 926 (human endothelial cell line), membrane fractions
Description: Affinity for integrin receptors αvβ3 was measured by competition experiments with [[…]]-Echistatin on membrane fractions prepared from human endothelial adenocarcinoma cell line EA-Hy 926 using a homogenizer and isolated by ultracentrifugation. Dilutions of test compounds were mixed with the radiotracer and membrane fraction prior to incubation for 1 h at 37° C. After a washing procedure the membranes were harvested on a filter using Skatron micro harvester. The filter spots were finally excised and counted in a Packard γ-counter. The Kd of [[…]]-Echistatin was calculated using Prism software. […] The compounds tested were EMD527040 (benchmark), the cPn216-chelated compound of Example 2(viii) and the tetraamine-chelated compound of Example 3(ii).

Which “positive uptake, share of the cells” value [1] does the source give for “1-(Cy5**-amido)-45-(3,5-dichlorophenyl)-39,43-dioxo-42-(5-(pyridin-2-ylamino)pentanamido)-3,6,9,12,15,18,21,24,27,30,33,36-dodecaoxa-40,44-diazaheptatetracontan-47-oic acid [imaging agent 7]” here?
Its value is “around 40%”.

How did the “competing out binding of the radiolabelled Echistatin” value (shortened to “competing out binding”) (integrin receptors αvβ3) turn out when `O=C(O)CC(NC(=O)[C@H](COCc1ccccc1)NC(=O)CCCCNc1ccccn1)c1cc(Cl)cc(Cl)c1` (some centres unmarked) [EMD527040, reference compound] was run?
Its value is “not possible to compete out binding of the radiolabelled Echistatin completely”.

`C/C(=N/O)C(C)(C)NCCC(CCNC(=O)CCCC(=O)NC[C@H](NC(=O)CCCCNc1ccccn1)C(=O)NC(CC(=O)O)c1cc(Cl)cc(Cl)c1)CCNC(C)(C)/C(C)=N\O` (stereo partly drawn) [Example 2(viii), (6S,Z)-3-(3,5-dichlorophenyl)-22-(hydroxyimino)-17-(2-(((Z)-3-(hydroxyimino)-2-methylbutan-2-yl)amino)ethyl)-21,21-dimethyl-5,9,13-trioxo-6-(5-(pyridin-2-ylamino)pentanamido)-4,8,14,20-tetraazatricosan-1-oic acid] was tested. Which “competing out binding” value (integrin receptors αvβ3) did it give?
The value was “not possible to compete out binding of the radiolabelled Echistatin completely”.

How did the “competing out binding” value (integrin receptors αvβ3) turn out when `NCCNCC(CNCCN)CC(=O)NC[C@H](NC(=O)CCCCNc1ccccn1)C(=O)NC(CC(=O)O)c1cc(Cl)cc(Cl)c1` (stereo partly drawn) [Example 3(ii), 3-((S)-3-(4-(2-Aminoethylamino)-3-((2-aminoethylamino)methyl)butanamido)-2-(5-(pyridin-2-ylamino)pentanamido)propanamido)-3-(3,5-dichlorophenyl)propanoic acid] was run?
Its value is “not possible to compete out binding of the radiolabelled Echistatin completely”.

With Echistatin [reference compound] as the molecule, how does the Ki (integrin receptors αvβ3; competition with [^115I]-Echistatin, EA-Hy 926 membrane fraction, 1 h at 37° C.) read?
Its Ki is 0.14 nM.
